Measured values as given in patent US20240041877A1, “DOSAGE REGIME AND METHOD FOR TREATING PULMONARY ARTERIAL HYPERTENSION” (Altavant Sciences GmbH, priority 2019, published 2024).

Assay: Study KAR5585-101 Part 1 (SAD): plasma pharmacokinetics after a single oral dose of KAR5585, fasting and fed (incl. dose proportionality and food effect)
Conditions: for half-life / AUC / AUC(0-inf) / Cmax / Vd/F / Tmax: human, po; for AUC: AUC0-tau; for Vd/F: Vz/F; for Tmax: Median
[1] = 100 mg KAR5585 single oral, fasted, Cohort 1, Geo. Mean
[2] = 100 mg KAR5585 single oral, fasted, Cohort 1, Mean
[3] = 200 mg KAR5585 single oral, fasted, Cohort 2, Geo. Mean
[4] = 200 mg KAR5585 single oral, fasted, Cohort 2, Mean
[5] = 400 mg KAR5585 single oral, fasted, Cohort 3A, Geo. Mean
[6] = 400 mg KAR5585 single oral, fasted, Cohort 3A, Mean
[7] = 400 mg KAR5585 single oral, fed, Cohort 3B, Geo. Mean
[8] = 400 mg KAR5585 single oral, fed, Cohort 3B, Mean
[9] = 700 mg KAR5585 single oral, fasted, Cohort 4, Geo. Mean
[10] = 700 mg KAR5585 single oral, fasted, Cohort 4, Mean
[11] = 1200 mg KAR5585 single oral, fasted, Cohort 5, Geo. Mean
[12] = 1200 mg KAR5585 single oral, fasted, Cohort 5, Mean
[13] = 2000 mg KAR5585 single oral, fasted, Cohort 6, Geo. Mean
[14] = 2000 mg KAR5585 single oral, fasted, Cohort 6, Mean
[15] = 100 to 2000 mg KAR5585 single oral dose, fasting, plasma analyte = label
[16] = plasma, 100 mg, 100 mg KAR5585 single oral, fasted, Cohort 1, Geo. Mean
[17] = plasma, 100 mg, 100 mg KAR5585 single oral, fasted, Cohort 1, Mean
[18] = plasma, 200 mg, 200 mg KAR5585 single oral, fasted, Cohort 2, Geo. Mean
[19] = plasma, 200 mg, 200 mg KAR5585 single oral, fasted, Cohort 2, Mean

Protocol: Food effect was to be evaluated in Part 1, Period 2. Part 2 was permitted to begin before Part 1 was completed and, in each part, the data from each dose Cohort were to be reviewed for safety before the next dose Cohort was enrolled.
Part 1 had 6 Cohorts of 12 subjects each (for a total of 72 subjects) and Part 2 had 4 Cohorts of 12 subjects each (for a total of 48 subjects). In Part 1, the 12 subjects in Cohort 3 (400 mg)were studied twice, once under fasting conditions (Period 1) and once under fed conditions (Period 2) for food-effect assessment.
Pharmacokinetic data were to be summarized descriptively.

SMILES: CCOC(=O)[C@@H]1CC2(CCN(c3cc(O[C@H](c4ccc(Cl)cc4-c4ccccc4)C(F)(F)F)nc(N)n3)CC2)CN1 [KAR5585, (S)-ethyl 8-(2-amino-6-((R)-1-(5-chloro-[1,1′-biphenyl]-2-yl)-2,2,2-trifluoroethoxy)pyrimidin-4-yl)-2,8-diazaspiro[4.5]decane-3-carboxylate]
- AUC0-24/D [1]: 0.475 (hr*ng/ml)/mg
- C12 [1]: BLQ
- CL/F [1]: 2110 L/h
- Cmax/D [1]: 0.132 (ng/mL)/mg
- AUC0-24/D [2]: 0.496 (hr*ng/ml)/mg
- C12 [2]: BLQ
- CL/F [2]: 2210 L/h
- Cmax/D [2]: 0.139 (ng/mL)/mg
- AUC0-24/D [3]: 0.467 (hr*ng/ml)/mg
- C12 [3]: BLQ
- CL/F [3]: 2100 L/h
- Cmax/D [3]: 0.0875 (ng/mL)/mg
- AUC0-24/D [4]: 0.485 (hr*ng/ml)/mg
- C12 [4]: BLQ
- CL/F [4]: 2220 L/h
- Cmax/D [4]: 0.0961 (ng/mL)/mg
- AUC0-24/D [5]: 0.707 (hr*ng/ml)/mg
- CL/F [5]: 1390 L/h
- Cmax/D [5]: 0.105 (ng/mL)/mg
- AUC0-24/D [6]: 0.742 (hr*ng/ml)/mg
- CL/F [6]: 1480 L/h
- Cmax/D [6]: 0.132 (ng/mL)/mg
- AUC0-24/D [7]: 2.19 (hr*ng/ml)/mg
- CL/F [7]: 443 L/h
- Cmax/D [7]: 0.413 (ng/mL)/mg
- AUC0-24/D [8]: 2.21 (hr*ng/ml)/mg
- CL/F [8]: 449 L/h
- Cmax/D [8]: 0.422 (ng/mL)/mg
- AUC0-24/D [9]: 0.584 (hr*ng/ml)/mg
- CL/F [9]: 1700 L/h
- Cmax/D [9]: 0.136 (ng/mL)/mg
- AUC0-24/D [10]: 0.617 (hr*ng/ml)/mg
- CL/F [10]: 1810 L/h
- Cmax/D [10]: 0.142 (ng/mL)/mg
- AUC0-24/D [11]: 0.333 (hr*ng/ml)/mg
- CL/F [11]: 2960 L/h
- Cmax/D [11]: 0.0568 (ng/mL)/mg
- AUC0-24/D [12]: 0.378 (hr*ng/ml)/mg
- CL/F [12]: 3850 L/h
- Cmax/D [12]: 0.0692 (ng/mL)/mg
- AUC0-24/D [13]: 0.348 (hr*ng/ml)/mg
- CL/F [13]: 3000 L/h
- Cmax/D [13]: 0.0475 (ng/mL)/mg
- AUC0-24/D [14]: 0.403 (hr*ng/ml)/mg
- CL/F [14]: 3820 L/h
- Cmax/D [14]: 0.0522 (ng/mL)/mg
- Dose proportionality power model, AUC0-12: Intercept estimate [15]: 1.51
- Dose proportionality power model, AUC0-inf: Intercept estimate [15]: 1.46
- Dose proportionality power model, AUC0-tau: Intercept estimate [15]: 0.258
- Dose proportionality power model, Cmax: Intercept estimate [15]: 0.534
- half-life (in vivo, 200 mg): 3.17 h
- AUC [16]: 27.4 ng·h/mL
- AUC [17]: 35 ng·h/mL
- AUC(0-inf) (plasma, 100 mg, AUC0-∞, 100 mg KAR5585 single oral, fasted, Cohort 1, Geo. Mean): 47.5 ng·h/mL
- AUC(0-inf) (plasma, 100 mg, AUC0-∞, 100 mg KAR5585 single oral, fasted, Cohort 1, Mean): 49.5 ng·h/mL
- Cmax [16]: 13.2 ng/mL
- Cmax [17]: 13.9 ng/mL
- Vd/F [16]: 5190 L
- Vd/F [17]: 5680 L
- half-life (plasma, 100 mg, t1 (t½, apparent terminal half-life), 100 mg KAR5585 single oral, fasted, Cohort 1, Geo. Mean): 1.71 h
- half-life (plasma, 100 mg, t1 (t½, apparent terminal half-life), 100 mg KAR5585 single oral, fasted, Cohort 1, Mean): 1.89 h
- Tmax (plasma, 100 mg, 100 mg KAR5585 single oral, fasted, Cohort 1): 1.5 h
- AUC [18]: 52 ng·h/mL
- AUC [19]: 61.4 ng·h/mL
- AUC(0-inf) (plasma, 200 mg, AUC0-∞, 200 mg KAR5585 single oral, fasted, Cohort 2, Geo. Mean): 95.3 ng·h/mL
- AUC(0-inf) (plasma, 200 mg, AUC0-∞, 200 mg KAR5585 single oral, fasted, Cohort 2, Mean): 99.5 ng·h/mL
- Cmax [18]: 17.5 ng/mL
- Cmax [19]: 19.2 ng/mL
- Vd/F [18]: 9610 L
- Vd/F [19]: 10300 L
- half-life (plasma, 200 mg, t1 (t½, apparent terminal half-life), 200 mg KAR5585 single oral, fasted, Cohort 2, Mean): 3.63 h
- Tmax (plasma, 200 mg, 200 mg KAR5585 single oral, fasted, Cohort 2): 1.78 h
- AUC(0-inf) (plasma, 400 mg, AUC0-inf, Geometric Mean, Cohort 3A (Fasting), 400 mg KAR5585 single oral dose, fasting): 288 ng·h/mL
- AUC(0-inf) (plasma, 400 mg, AUC0-inf, Geometric Mean, Cohort 3B (Fed), 400 mg KAR5585 single oral dose, fed): 903 ng·h/mL
- AUC (plasma, 400 mg, 400 mg KAR5585 single oral, fasted, Cohort 3A, Geo. Mean): 176 ng·h/mL
